In patent US4816472A, “Derivatives of 19,20-Bis-nor-prostanoic acid with antiulcer and anorectic activity, process for their preparation and pharmaceutical compositions thereof” (Istituto Biochemico Italiano Giovanni Lorenzini S.p.A., priority 1985, dated 1989):

Legend:
[1] = tested on: NaOH induced ulcers in the rat; test: Sodium hydroxide induced ulcers in the rat; assay type: in vivo
Method: (§1) The anitulcer activity of these derivatives was evaluated on ulcers induced by the administration of ethanol, hydrochloric acid and sodium hydroxide in the rat, also on gastric ulcers induced by aspirin in the rat, and on their influence on gastric secretions in the rat.
(3) Sodium hydroxide induced ulcers in the rat:
Also this test is performed in accordance with the method described by A. Robert et al, in Gastroenterology, 77,433 (1979), the disclosure of which is incorporated herein by reference.

[2] = tested on: aspirin-induced ulcers in the rat; test: Aspirin induced gastric ulcers in the rat; assay type: in vivo; conditions: 200 mg/kg of drug
Method: as §1
(4) Aspirin induced gastric ulcers in the rat:
For carrying out this test, the method described by H. A. Carmichael, L. M. Nelson, R. I. Russel in Gastroenterology 74, 1229 (1978) is used, the disclosure of which is incorporated herein by reference.

[3] = tested on: gastric secretion in the rat; test: Gastric secretion in the rat; assay type: in vivo, Sprague-Dawley rats
Method: as §1
(5) Gastric secretion in the rat:
Sprague-Dawley rats of both sexes are used for this test. The gastric secretion is rated according to the method described by H. Shay et al in Gastroenterology 5,43 (1945) the disclosure of which is incorporated herein by reference.

[4] = tested on: gastric depletion in the rat; test: Gastric depletion in the rat; assay type: in vivo
Method: Gastric depletion in the rat.
Rats of both sexes and mean weight of 180-200 g are used. The animals are subjected to fasting for 24 hours but have free access to water up to 3 hours prior to the test.
Preparation of phenyl red solution: 50 mg of phenyl red is mixed with 100 ml of a 1.5% methyl cellulose solution and shaken for 5 hours.
1.5 ml per rat is administered irrespective of weight.
The rats are sacrificed by cervix translocation: the stomach is taken out after ligaturing the cardias and pilorus.
The entire stomach and contents are placed in the container of a homogenizer with 50 ml of 0.1N NaOH. They are homogenized for 2 minutes at a maximum velocity. They homogenate is transferred to a test-tube and left to settle for one hour.
5 ml of the supernatant is taken out and put into a centrifuge tube and mixed with 0.5 ml of 20% (w/v) trichloroacetic acid. The tube is centrifuged at 2500 rpm for 20 min. The entire supernatant is taken and mixed with 4 ml of 0.4N NaOH, and its absorbance is measured at 560λ.
Gastric depletion is calculated according to the following formula:
(1-sample absorbance/standard absorbance)×100
As "standard absorbance" is considered the mean value of spectophotometric measurement of 4 animals sacrificed immediately after administering phenyl red.

Compound	Percent inhibition of aspirin-induced ulcers in the rat [2] [%]	Percent inhibition of gastric secretion in the rat ([3]; 25 mg/kg, 2 h after treatment) [%]	Percent inhibition of gastric secretion in the rat ([3]; 50 mg/kg, 2 h after treatment) [%]	Percent inhibition of gastric secretion in the rat ([3]; 100 mg/kg, 2 h after treatment) [%]	Percent inhibition of gastric secretion in the rat ([3]; 100 mg/kg, 4 h after treatment) [%]	also measured
CCCCCCC1CCC(O)C1CCCCCCC(=O)O (stereo not drawn) [drawing 25]	–	–	–	–	–	Percent inhibition of NaOH induced ulcers in the rat ([1]; 50 mg/kg): 53%; Percent inhibition of NaOH induced ulcers in the rat ([1]; 100 mg/kg): 84%; Percent inhibition of NaOH induced ulcers in the rat ([1]; 200 mg/kg): 92%
CCCCCCC1CCC(N)C1CCCCCCC(=O)O (stereo not drawn) [drawing 26]	72	–	–	–	–	–
CCCCCCC1CCC(NC)C1CCCCCCC(=O)O (stereo not drawn) [drawing 27]	87	–	–	–	–	–
CCCCCCC1CCC(N(C)C)C1CCCCCCC(=O)O (stereo not drawn) [drawing 28]	88	–	–	–	–	–
CCCCCCC1CCC(NC(C)C)C1CCCCCCC(=O)O (stereo not drawn) [drawing 29]	63	–	–	–	–	–
CCCCCCC1CCC(NC(C)=O)C1CCCCCCC(=O)O (stereo not drawn) [drawing 30]	58	–	–	–	–	–
CCCCCCC1CCC(O)C1CCCCCCC(=O)O (stereo not drawn) [drawing 31]	64	–	–	–	–	–
CCCCCCC1CCC(N)C1CCCCCCC(=O)O (stereo not drawn) [drawing 32]	–	87	88	77	89	Percent inhibition of gastric secretion in the rat ([3]; 12.5 mg/kg, 2 h after treatment): 38%; Percent inhibition of gastric secretion in the rat ([3]; 50 mg/kg, 4 h after treatment): 68%
CCCCCCC1CCC(NC)C1CCCCCCC(=O)O (stereo not drawn) [drawing 33]	–	0	54	79	66	Percent inhibition of gastric secretion in the rat ([3]; 25 mg/kg, 4 h after treatment): 40%; Percent inhibition of gastric secretion in the rat ([3]; 50 mg/kg, 4 h after treatment): 49%
CCCCCCC1CCC(N(C)C)C1CCCCCCC(=O)O (stereo not drawn) [drawing 34]	–	74	75	82	63	Percent inhibition of gastric secretion in the rat ([3]; 25 mg/kg, 4 h after treatment): 23%; Percent inhibition of gastric secretion in the rat ([3]; 50 mg/kg, 4 h after treatment): 55%
CCCCCCC1CCC(NC(C)C)C1CCCCCCC(=O)O (stereo not drawn) [drawing 35]	–	35	56	37	54	Percent inhibition of gastric secretion in the rat ([3]; 25 mg/kg, 4 h after treatment): 0%; Percent inhibition of gastric secretion in the rat ([3]; 50 mg/kg, 4 h after treatment): 46%
CCCCCCC1CCC(NC(C)=O)C1CCCCCCC(=O)O (stereo not drawn) [drawing 36]	–	51	48	70	59	Percent inhibition of gastric secretion in the rat ([3]; 25 mg/kg, 4 h after treatment): 0%; Percent inhibition of gastric secretion in the rat ([3]; 50 mg/kg, 4 h after treatment): 12%
CCCCCCC1CCC(O)C1CCCCCCC(=O)O (stereo not drawn) [drawing 37]	–	0	30	50	45	Percent inhibition of gastric secretion in the rat ([3]; 25 mg/kg, 4 h after treatment): 15%
CCCCCCC1CCC(N)C1CCCCCCC(=O)O (stereo not drawn) [drawing 38]	–	–	–	–	–	inhibition values of gastric depletion ([4]; 25 mg/kg): 18%; inhibition values of gastric depletion ([4]; 50 mg/kg): 80%; inhibition values of gastric depletion ([4]; 100 mg/kg): 80%
CCCCCCC1CCC(NC)C1CCCCCCC(=O)O (stereo not drawn) [drawing 39]	–	–	–	–	–	inhibition values of gastric depletion ([4]; 50 mg/kg): 33%
CCCCCCC1CCC(N(C)C)C1CCCCCCC(=O)O (stereo not drawn) [drawing 40]	–	–	–	–	–	inhibition values of gastric depletion ([4]; 50 mg/kg): 55%
CCCCCCC1CCC(NC(C)C)C1CCCCCCC(=O)O (stereo not drawn) [drawing 41]	–	–	–	–	–	inhibition values of gastric depletion ([4]; 50 mg/kg): 14%
CCCCCCC1CCC(NC(C)=O)C1CCCCCCC(=O)O (stereo not drawn) [drawing 42]	–	–	–	–	–	inhibition values of gastric depletion ([4]; 50 mg/kg): 78%
